{"source": "patent US20230321067A1", "about": "“DOSING REGIMEN COMPRISING 3-(1-OXOISOINDOLIN-2-YL)PIPERIDINE-2,6-DIONE DERIVATIVES” (Novartis AG, priority 2020, published 2023)", "key": {"peripheral T cells [1]": {"tested_on": "peripheral T cells", "experiment": "Proliferation of peripheral T cells (Ki67 staining) in immunized cynomolgus monkeys (FIG. 9B)", "assay_type": "in vivo, cynomolgus monkey", "settings": "3 mg/kg daily, recall response phase, compared to immunization alone", "method": "FIG. 9B. is a graph showing proliferation of peripheral T cells (Mean+/−SEM, % of predose) upon treatment with 0.1 and 3 mg/kg of Compound I-57 in cynomolgus monkeys."}, "IKZF2 [2]": {"tested_on": "IKZF2", "experiment": "IKZF2 degradation in primary rabbit PBMCs", "assay_type": "cell-based", "method": "I-57 mediated degradation of IKZF2 was assessed in primary PBMCs obtained from rabbit, dog, pig, cynomolgus monkey, and human, and in primary splenocytes of mouse and rat. […] Species-specificity due to species specific alteration CRBN primary structure have previously been described with other compounds known to interact with the CRBN ubiquitin ligase complex to elicit protein specific degradation (Krönke et al, 2015)."}, "CYP2D6 [3]": {"molecular_target": "T1, CYP2D6 (Homo sapiens, UniProt P10635)", "T1 sequence (P10635 whole entry)": "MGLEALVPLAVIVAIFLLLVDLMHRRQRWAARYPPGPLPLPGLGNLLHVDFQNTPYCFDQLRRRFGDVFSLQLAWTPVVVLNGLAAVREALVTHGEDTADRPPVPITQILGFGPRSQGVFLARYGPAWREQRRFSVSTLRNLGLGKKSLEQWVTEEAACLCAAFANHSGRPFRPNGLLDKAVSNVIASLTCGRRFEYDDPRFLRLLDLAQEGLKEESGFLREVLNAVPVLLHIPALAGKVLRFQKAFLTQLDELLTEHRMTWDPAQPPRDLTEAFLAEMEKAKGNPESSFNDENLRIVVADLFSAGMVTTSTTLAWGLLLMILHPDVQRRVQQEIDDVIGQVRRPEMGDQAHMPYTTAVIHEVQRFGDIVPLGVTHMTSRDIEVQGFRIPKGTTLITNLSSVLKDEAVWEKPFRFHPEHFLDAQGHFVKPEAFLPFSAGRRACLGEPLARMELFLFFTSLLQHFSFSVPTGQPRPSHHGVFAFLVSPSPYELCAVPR", "experiment": "Time-dependent CYP inhibition: CYP2D6", "assay_type": "in vitro ADME", "settings": "I-57 concentrations of up to 100 μM"}, "CYP3A": {"tested_on": "CYP3A", "experiment": "CYP inhibition: CYP3A", "assay_type": "in vitro ADME", "settings": "I-57 concentrations of up to 100 μM"}, "IKZF1 (Ikaros)": {"molecular_target": "T2, IKZF1 (Ikaros) (Homo sapiens, UniProt Q13422)", "T2 construct": "ProLabel; expressed in transfected cells; host or cells: HEK293T", "T2 sequence (Q96SW2 whole entry partner)": "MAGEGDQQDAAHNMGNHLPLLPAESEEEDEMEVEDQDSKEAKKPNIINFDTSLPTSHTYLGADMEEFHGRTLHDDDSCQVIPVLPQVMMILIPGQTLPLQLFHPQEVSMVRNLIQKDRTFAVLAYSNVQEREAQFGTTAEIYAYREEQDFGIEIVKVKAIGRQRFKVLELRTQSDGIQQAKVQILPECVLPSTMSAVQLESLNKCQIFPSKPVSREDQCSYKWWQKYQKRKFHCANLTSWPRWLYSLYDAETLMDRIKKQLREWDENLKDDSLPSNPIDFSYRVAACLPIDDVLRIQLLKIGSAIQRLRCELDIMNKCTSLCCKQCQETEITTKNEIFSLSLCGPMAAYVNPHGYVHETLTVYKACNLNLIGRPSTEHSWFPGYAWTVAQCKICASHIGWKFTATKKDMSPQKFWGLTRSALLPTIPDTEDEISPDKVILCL", "T2 sequence (Q16531 whole entry partner)": "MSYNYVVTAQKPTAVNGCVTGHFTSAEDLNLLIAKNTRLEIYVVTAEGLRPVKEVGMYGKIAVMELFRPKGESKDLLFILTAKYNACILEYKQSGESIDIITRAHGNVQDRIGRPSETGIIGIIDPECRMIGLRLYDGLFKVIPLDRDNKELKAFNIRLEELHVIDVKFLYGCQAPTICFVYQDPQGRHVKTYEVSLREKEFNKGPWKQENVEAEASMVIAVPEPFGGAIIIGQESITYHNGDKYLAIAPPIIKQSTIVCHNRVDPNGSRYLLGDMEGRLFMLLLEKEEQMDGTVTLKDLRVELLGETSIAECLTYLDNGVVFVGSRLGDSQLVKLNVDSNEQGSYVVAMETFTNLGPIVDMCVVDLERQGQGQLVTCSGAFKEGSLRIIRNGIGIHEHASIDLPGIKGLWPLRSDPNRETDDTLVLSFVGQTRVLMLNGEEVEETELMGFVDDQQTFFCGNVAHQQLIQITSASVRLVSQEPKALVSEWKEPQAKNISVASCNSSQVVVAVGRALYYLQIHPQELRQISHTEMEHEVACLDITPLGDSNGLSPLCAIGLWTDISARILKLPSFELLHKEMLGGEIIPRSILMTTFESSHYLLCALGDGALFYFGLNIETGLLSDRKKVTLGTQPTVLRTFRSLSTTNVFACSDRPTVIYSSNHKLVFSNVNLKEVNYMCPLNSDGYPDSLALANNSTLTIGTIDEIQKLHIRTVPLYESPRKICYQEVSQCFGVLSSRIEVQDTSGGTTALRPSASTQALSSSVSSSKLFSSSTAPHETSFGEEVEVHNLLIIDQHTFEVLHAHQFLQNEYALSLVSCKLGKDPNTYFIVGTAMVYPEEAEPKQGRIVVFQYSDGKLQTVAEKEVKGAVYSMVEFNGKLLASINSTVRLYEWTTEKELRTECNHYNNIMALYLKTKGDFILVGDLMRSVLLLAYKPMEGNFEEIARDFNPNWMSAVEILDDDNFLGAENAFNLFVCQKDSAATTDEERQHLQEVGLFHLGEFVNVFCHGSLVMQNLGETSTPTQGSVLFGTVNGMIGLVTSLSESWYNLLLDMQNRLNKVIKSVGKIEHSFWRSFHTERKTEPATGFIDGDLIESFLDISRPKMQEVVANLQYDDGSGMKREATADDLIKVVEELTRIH", "T2 sequence (Q13422 whole entry)": "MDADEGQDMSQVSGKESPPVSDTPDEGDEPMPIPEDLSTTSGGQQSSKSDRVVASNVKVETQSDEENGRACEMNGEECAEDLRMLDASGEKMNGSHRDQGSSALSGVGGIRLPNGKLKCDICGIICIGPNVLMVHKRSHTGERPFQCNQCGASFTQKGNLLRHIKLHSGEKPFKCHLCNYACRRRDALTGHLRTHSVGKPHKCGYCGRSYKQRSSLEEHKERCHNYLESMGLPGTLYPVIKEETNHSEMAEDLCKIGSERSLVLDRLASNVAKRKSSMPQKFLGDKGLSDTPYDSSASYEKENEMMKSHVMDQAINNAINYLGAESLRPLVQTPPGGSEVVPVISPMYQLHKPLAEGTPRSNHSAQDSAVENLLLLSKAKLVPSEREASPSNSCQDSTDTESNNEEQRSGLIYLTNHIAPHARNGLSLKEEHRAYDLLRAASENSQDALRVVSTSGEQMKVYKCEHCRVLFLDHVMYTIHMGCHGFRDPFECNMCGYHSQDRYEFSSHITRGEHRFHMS", "experiment": "IKZF1 degradation in vitro (FIG. 1)", "assay_type": "cell-based", "text": "(§1) Although the specific transcriptional targets of IKZF2 remain to be defined, IKZF2 binds to and represses transcription from the IL-2 promoter region (Baine 2013). […] Finally, an in vitro assay recapitulating hallmarks of T cell dysfunction/exhaustion, by sequential TCR stimulation of isolated primary human T cells, was used to test the hypothesis that […] would rescue the exhausted phenotype and enhance Teff cell activity. […] In addition to IKZF1, other known cereblon substrates including translation termination factor G1 to S phase transition 1 (GSPT1) are not degraded by I-57 (FIG. 1)."}, "CYP1A2": {"molecular_target": "CYP1A2 (Homo sapiens, UniProt P05177)", "sequence (P05177 whole entry)": "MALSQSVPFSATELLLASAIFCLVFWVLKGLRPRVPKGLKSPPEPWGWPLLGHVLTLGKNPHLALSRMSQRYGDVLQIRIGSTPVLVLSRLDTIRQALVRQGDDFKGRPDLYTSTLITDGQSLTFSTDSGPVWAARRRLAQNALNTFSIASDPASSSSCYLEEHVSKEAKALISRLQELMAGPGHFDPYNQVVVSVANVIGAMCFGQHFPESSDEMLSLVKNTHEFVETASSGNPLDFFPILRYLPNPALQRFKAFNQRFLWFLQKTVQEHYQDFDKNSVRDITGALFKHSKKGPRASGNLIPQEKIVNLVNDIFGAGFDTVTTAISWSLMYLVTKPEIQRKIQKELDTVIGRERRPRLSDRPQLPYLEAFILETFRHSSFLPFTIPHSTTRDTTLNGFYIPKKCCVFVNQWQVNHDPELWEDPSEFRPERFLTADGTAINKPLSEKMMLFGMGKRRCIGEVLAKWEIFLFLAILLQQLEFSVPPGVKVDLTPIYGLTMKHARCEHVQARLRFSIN", "experiment": "Time-dependent CYP inhibition: CYP1A2", "assay_type": "in vitro ADME", "settings": "I-57 concentrations of up to 100 μM"}, "Treg cells": {"tested_on": "Treg cells", "experiment": "Suppressive potency of Treg cells expanded in the presence of compound (FIG. 2C)", "assay_type": "cell-based", "text": "FIG. 2C is a bar graph showing the suppressive potency of Treg cells expanded in the presence of Compound I-57."}, "[4]": {"experiment": "Single oral dose PK in cynomolgus monkey", "assay_type": "in vivo", "settings": "for Cmax / AUC(0-t): plasma; for Cmax / AUC(0-t) / AUC24 h/Dose / Cmax/Dose: unbound, n = 3, mean ± SD; for AUC(0-t): read-out: AUC24 h", "method": "The PK/PD relationship of I-57 was examined in cynomolgus monkeys after a single oral dose of 0.01, 0.1 or 1 mg/kg. I-57 plasma concentration and IKZF2 expression (as determined by flow cytometry) in FOXP3+ T cells from PBMCs were determined (FIG. 4 and FIG. 5)."}, "[5]": {"experiment": "In vivo non-clinical PK, monkey", "design": "species or system cynomolgus monkey", "method": "The in vivo non-clinical PK profile of I-57 was investigated in mouse, rat, dog and cynomolgus monkey using I-57 free base. […] After p.o. administration, the absorption of I-57 was rapid with peak blood concentration (Tmax) occurring between 1 and 4 hours. […] In high dose PK and toxicology studies with I-57 the exposures in mouse, rat and monkey increased with dose."}, "peripheral T cells [6]": {"tested_on": "peripheral T cells", "experiment": "Immunization response (KLH/Squalene) in cynomolgus monkey: anti-KLH IG and Ki67 T cells", "assay_type": "in vivo", "method": "The PK/PD relationship of I-57 was further examined in cynomolgus monkeys after repeated daily oral doses of 0.1 and 3 mg/kg. In this study, a cohort of animals were initially immunized with an antigen-adjuvant mixture (KLH/Squalene). The experiment was designed to assess the effect of I-57 exposure, and the resulting IKZF2 degradation, on immune response during immunization to test the hypothesis that IKZF2 degradation would result in increased proliferation of stimulated T-cells. In the experiment, daily I-57 oral treatment was initiated 5 days after immunization. An immunization booster dose was administered on day 15. I-57 plasma concentration and IKZF2 expression (as determined by flow cytometry) in FOXP3+ T cells from PBMCs were determined (FIG. 9A and FIG. 9B).\nIn order to measure the impact of I-57 treatment on the immune response following immunization, serum anti-KLH IG levels were measured longitudinally, and levels of T cell activation were measured in PBMCs by flow cytometry. […] In contrast, the proportion of proliferative peripheral T cells (denoted by Ki67 staining) was increased in the highest dose group (3 mg/kg) in the recall response phase, compared to immunization alone."}, "CYP2D6 [7]": {"molecular_target": "T1, CYP2D6", "experiment": "CYP inhibition: CYP2D6", "assay_type": "in vitro ADME"}, "IKZF2 [8]": {"molecular_target": "T3, IKZF2 (Oryctolagus cuniculus, UniProt A0A5F9CPW0)", "T3 construct": "endogenous in cells; host or cells: primary rabbit PBMCs", "T3 sequence (A0A5F9CPW0 1-526)": "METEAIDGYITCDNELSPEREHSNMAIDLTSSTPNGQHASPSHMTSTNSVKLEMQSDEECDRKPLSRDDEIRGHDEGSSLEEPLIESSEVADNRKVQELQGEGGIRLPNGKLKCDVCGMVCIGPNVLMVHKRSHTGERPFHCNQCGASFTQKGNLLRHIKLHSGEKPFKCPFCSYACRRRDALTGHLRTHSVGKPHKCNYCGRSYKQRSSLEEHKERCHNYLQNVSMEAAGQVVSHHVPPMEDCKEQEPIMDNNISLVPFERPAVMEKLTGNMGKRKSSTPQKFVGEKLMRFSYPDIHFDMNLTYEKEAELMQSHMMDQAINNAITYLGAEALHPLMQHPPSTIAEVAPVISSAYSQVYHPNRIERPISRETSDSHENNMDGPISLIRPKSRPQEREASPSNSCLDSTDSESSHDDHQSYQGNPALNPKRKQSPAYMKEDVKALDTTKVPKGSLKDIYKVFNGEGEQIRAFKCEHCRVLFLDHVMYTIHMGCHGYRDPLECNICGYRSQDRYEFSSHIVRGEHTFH", "experiment": "Degradation of IKZF2 in primary PBMCs, rabbit (FIG. 3)", "assay_type": "cell-based", "text": "FIG. 3. is a bar graph showing the degradation of IKZF2 in primary PBMCs obtained from rabbit, dog, pig, cynomolgus monkey and human, and in primary splenocytes of mouse and rat and treated with Compound I-57."}, "[9]": {"tested_on": "IL-2 mRNA and soluble protein in Jurkat cells", "experiment": "IL-2 expression in TCR-stimulated Jurkat cells", "assay_type": "cell-based", "settings": "Homo sapiens; Jurkat cells upon TCR stimulation", "text": "as §1"}}, "note": "Values joined by “and” are separate entries in the source; they are usually repeats but may differ in a detail not shown here. Identical values can stand only once. Like-named read-outs stand apart in the source and are kept apart here."}
{"compound": "O=C1CCC(N2Cc3cc(C4CCN(Cc5ccccc5)CC4)ccc3C2=O)C(=O)N1", "note": "(centres unmarked) [Compound I-57, 3-(5-(1-benzylpiperidin-4-yl)-1-oxoisoindolin-2-yl)piperidine-2,6-dione]", "values": [{"measurement": "proportion of proliferative peripheral T cells (Ki67 staining)", "setting": "peripheral T cells [1]", "result": "increased"}, {"measurement": "degradation of IKZF2", "setting": "IKZF2 [2]", "result": "Degradation was observed"}, {"measurement": "time-dependent inhibition of CYP2D6", "setting": "CYP2D6 [3]", "result": "no apparent time-dependent inhibition"}, {"measurement": "inhibition of CYP3A", "setting": "CYP3A", "result": "very little and no inhibition"}, {"measurement": "degradation of IKZF1", "setting": "IKZF1 (Ikaros)", "result": "not degraded"}, {"measurement": "time-dependent inhibition of CYP1A2", "setting": "CYP1A2", "result": "no apparent time-dependent inhibition"}, {"measurement": "capacity of Treg cells to suppress Teff proliferation", "setting": "Treg cells", "result": "reduced capacity to suppress Teff proliferation"}, {"measurement": "Cmax", "setting": "[4]; single oral dose 0.01 mg/kg", "result": "2.11 ± 0.69", "unit": "ng/mL"}, {"measurement": "AUC(0-t)", "setting": "[4]; single oral dose 0.01 mg/kg", "result": "14.1 ± 4.72", "unit": "ng·h/mL"}, {"measurement": "Cmax", "setting": "[4]; single oral dose 0.1 mg/kg", "result": "13.4 ± 2.77", "unit": "ng/mL"}, {"measurement": "AUC(0-t)", "setting": "[4]; single oral dose 0.1 mg/kg", "result": "102 ± 13.2", "unit": "ng·h/mL"}, {"measurement": "Cmax", "setting": "[4]; single oral dose 1 mg/kg", "result": "102 ± 45.3", "unit": "ng/mL"}, {"measurement": "AUC(0-t)", "setting": "[4]; single oral dose 1 mg/kg", "result": "610 ± 236", "unit": "ng·h/mL"}, {"measurement": "dose proportionality of exposure", "setting": "[4]; single oral dose 0.01, 0.1 or 1 mg/kg", "result": "slightly less than dose proportional"}, {"measurement": "AUC24 h/Dose", "setting": "[4]; single oral dose 0.01 mg/kg", "result": "1410 ± 472 (ng · h/mL)/(mg/kg)"}, {"measurement": "Cmax/Dose", "setting": "[4]; single oral dose 0.01 mg/kg", "result": "211 ± 69.1 (ng/mL)/(mg/kg)"}, {"measurement": "AUC24 h/Dose", "setting": "[4]; single oral dose 0.1 mg/kg", "result": "1020 ± 136 (ng · h/mL)/(mg/kg)"}, {"measurement": "Cmax/Dose", "setting": "[4]; single oral dose 0.1 mg/kg", "result": "134 ± 27.7 (ng/mL)/(mg/kg)"}, {"measurement": "AUC24 h/Dose", "setting": "[4]; single oral dose 1 mg/kg", "result": "610 ± 236 (ng · h/mL)/(mg/kg)"}, {"measurement": "Cmax/Dose", "setting": "[4]; single oral dose 1 mg/kg", "result": "102 ± 45.3 (ng/mL)/(mg/kg)"}, {"measurement": "dose proportionality of AUC", "setting": "[5]; above 100 mg/kg", "result": "less than dose proportional"}, {"measurement": "dose proportionality of AUC", "setting": "[5]; between 10 mg/kg and 100 mg/kg", "result": "slightly over-proportional"}, {"measurement": "bioavailability", "setting": "[5]; cynomolgus monkey, blood, po", "result": 89, "unit": "%"}, {"measurement": "proportion of proliferative peripheral T cells (Ki67 staining)", "setting": "peripheral T cells [6]; 3 mg/kg, recall response phase, compared to immunization alone", "result": "increased"}, {"measurement": "Anti-IgG titers elicited by the immunization (serum anti-KLH IG)", "setting": "peripheral T cells [6]; KLH/Squalene immunization, daily I-57", "result": "not further enhanced"}, {"measurement": "IC50", "setting": "CYP2D6 [7]", "result": "~65", "unit": "µM"}, {"measurement": "degradation of IKZF2", "setting": "IKZF2 [8]", "result": "degradation was observed"}, {"measurement": "AC50", "setting": "[9]", "result": "~4 nM and ~0.0017 µg/mL"}, {"measurement": "genotoxic potential", "setting": "Genotoxic potential", "result": "no genotoxic or phototoxic potential"}]}
